Patent US20120035251A1, “THIOPHENE INHIBITORS OF IKK-B SERINE-THREONINE PROTEIN KINASE” (CHROMA THERAPEUTICS LD., priority 2009, published 2012)
Read-outs that look alike come from different tables or passages of the source. One block for each molecule: values may come before it.

Experiments:
IKKβ = target: T1, IKKβ (Homo sapiens, UniProt O14920); test: IKKβ enzyme assay (Z'-LYTE, Invitrogen); type: biochemical
T1 construct: purchased Invitrogen (Paisley, UK)
T1 sequence (O14920 1-756): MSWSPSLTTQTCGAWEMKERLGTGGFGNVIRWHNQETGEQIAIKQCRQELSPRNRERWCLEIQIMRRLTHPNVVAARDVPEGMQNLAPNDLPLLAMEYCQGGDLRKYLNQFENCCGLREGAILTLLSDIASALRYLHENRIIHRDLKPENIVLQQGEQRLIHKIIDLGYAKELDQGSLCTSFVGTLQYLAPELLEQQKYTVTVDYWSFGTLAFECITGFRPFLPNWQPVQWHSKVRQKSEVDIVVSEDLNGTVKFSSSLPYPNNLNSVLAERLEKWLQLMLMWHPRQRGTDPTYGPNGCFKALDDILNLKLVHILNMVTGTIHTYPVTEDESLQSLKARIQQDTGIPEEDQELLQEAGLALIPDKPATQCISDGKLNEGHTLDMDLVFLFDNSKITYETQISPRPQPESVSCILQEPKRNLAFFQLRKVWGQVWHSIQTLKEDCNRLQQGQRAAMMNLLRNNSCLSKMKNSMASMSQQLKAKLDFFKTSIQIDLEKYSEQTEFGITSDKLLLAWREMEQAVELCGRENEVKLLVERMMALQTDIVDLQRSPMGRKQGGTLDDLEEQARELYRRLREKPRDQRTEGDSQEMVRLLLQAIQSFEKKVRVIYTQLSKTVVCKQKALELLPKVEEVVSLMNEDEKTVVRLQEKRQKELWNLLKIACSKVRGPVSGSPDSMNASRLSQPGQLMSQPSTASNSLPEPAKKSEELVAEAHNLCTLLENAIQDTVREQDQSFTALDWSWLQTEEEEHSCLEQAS
Method: The ability of compounds to inhibit IKKβ kinase activity was measured in an assay performed by Invitrogen (Paisley, UK). The Z′-LYTE™ biochemical assay employs a fluorescence-based, coupled-enzyme format and is based on the differential sensitivity of phosphorylated and non-phosphorylated peptides to proteolytic cleavage. The peptide substrate is labelled with two fluorophores—one at each end—that make up a FRET pair. In the primary reaction, the kinase transfers the gamma-phosphate of ATP to a single serine or threonine residue in a synthetic FRET-peptide. In the secondary reaction, a site-specific protease recognizes and cleaves non-phosphorylated FRET-peptides. Phosphorylation of FRET-peptides suppresses cleavage by the Development Reagent. Cleavage disrupts FRET between the donor (i.e., coumarin) and acceptor (i.e. fluorescein) fluorophores on the FRET-peptide, whereas uncleaved, phosphorylated FRET-peptides maintain FRET. A […] method, which calculates the ratio (the Emission Ratio) of donor emission to acceptor emission after excitation of the donor fluorophore at 400 nm, is used to quantitate reaction progress.
The final 10 μL Kinase Reaction consists of 0.9-8.0 ng IκBKB (IKKβ), 2 μM Ser/Thr 05 Peptide and ATP in 50 mM HEPES pH 7.5, 0.01% BRIJ-35, 10 mM MgCl2, 1 mM EGTA. The assay is performed at an ATP concentration at, or close to the Km. After the 60 minute Kinase Reaction incubation at room temperature, 5 μL of a 1:128 dilution of Development Reagent is added. The assay plate is incubated for a further 60 minutes at room temperature and read on a fluorescence plate reader.
Duplicate data points are generated from a 1/3 log dilution series of a stock solution of test compound in DMSO. Nine dilutions steps are made from a top concentration of 10 μM, and a ‘no compound’ blank is included. Data is collected and analysed using XLfit software from IDBS. The dose response curve is curve fitted to model number 205 (sigmoidal dose-response model). From the curve generated, the concentration giving 50% inhibition is determined and reported.

[1] = tested on: TNF-α production in THP-1 cells; test: LPS-stimulation of THP-1 cells, TNF-α by ELISA; type: cell-based; settings: Homo sapiens
Method: THP-1 cells were plated in 100 μl at a density of 4×10^4 cells/well in V-bottomed 96 well tissue culture treated plates and incubated at 37° C. in 5% CO2 for 16 hours. 2 hours after the addition of the inhibitor in 100 μl of tissue culture media, the cells were stimulated with LPS (E coli strain 005:B5, Sigma) at a final concentration of 1 μg/ml and incubated at 37° C. in 5% CO2 for 6 hrs. TNF-α levels were measured from cell-free supernatants by sandwich ELISA (R&D Systems #QTA00B).

[2] = tested on: TNF-α production in human whole blood; test: LPS-stimulation of human whole blood, TNF-α by ELISA; type: cell-based
Method: Whole blood was taken by venous puncture using heparinised vacutainers (Becton Dickinson) and diluted in an equal volume of RPMI1640 tissue culture media (Sigma). 100 μl was plated in V-bottomed 96 well tissue culture treated plates. 2 hours after the addition of the inhibitor in 100 μlof RPMI1640 media, the blood was stimulated with LPS (E coli strain 005:B5, Sigma) at a final concentration of 100 ng/ml and incubated at 37° C. in 5% CO2 for 6 hours. TNF-α levels were measured from cell-free supernatants by sandwich ELISA (R&D Systems #QTA00B).

[3] = tested on: U937 (monocyte cell line) cells; test: Intact cell accumulation assay, U937 cells; type: in vitro ADME; settings: 6 μmol/L compound
Method: (§1) Cells (4×10^4/mL) were incubated at 37° C. in culture medium containing 6 μmol/L compound in a 5% (v/v) CO2-humidified atmosphere. Incubations were terminated after 6 h by centrifugation of 25 mL aliquots of the cell suspension at 1500 rpm for 5 min at 4° C. 0.2 mL samples of the culture media supernatants were added to four volumes of acetonitrile. After decanting the supernatant, the residual cell pellet (10^6 cells) was extracted into 1 mL of acetonitrile. Samples were then analyzed for the ester and acid metabolite at room temperature by LC/MS/MS (Sciex API3000). Chromatography was based on a MeCN (75×21 mm) column with a 5% to 95% (v/v) acetonitrile/water, 0.1% (v/v) formic acid mobile phase. For the zero time samples, the cell suspension was chilled and centrifuged as soon as the ester had been added and then extracted into acetonitrile as described. Levels in cells are expressed as ng/mL.

[4] = tested on: HUT78 (non-monocyte cell line) cells; test: Intact cell accumulation assay, HUT78 cells; type: in vitro ADME; settings: 6 μmol/L compound
Method: as §1

[5] = compound as drawn (Ester for the Example 1 row), read-out: Inhibition of IKKβ (IC50 nM)
[6] = read-out: IC50 (nM) IKKβ Enzyme
[7] = THP-1, read-out: Inhibition of TNF-α production in THP-1 cells (IC50)
[8] = LPS-stimulated THP-1 cells, TNF-α, read-out: IC50 (nM) THP-1
[9] = LPS-stimulated human whole blood, TNF-α, read-out: IC50 (nM) Human Whole Blood

SMILES: CC(C)C[C@H](NCc1ccc(Cc2cc(C(N)=O)c(NC(N)=O)s2)cc1)C(=O)OC(C)(C)C [Example 2, tert-Butyl N-(4-{[4-carbamoyl-5-(carbamoylamino)-2-thienyl]methyl}benzyl)-L-leucinate]
IC50 (IKKβ; [6]): 500 to 5000 nM
IC50 [1, 8]: > 5000 nM
IC50 [2, 9]: > 5000 nM

SMILES: CC(C)C[C@H](NCc1ccc(CCc2cc(C(N)=O)c(NC(N)=O)s2)cc1)C(=O)OC1CCCC1 [Example 3, Cyclopentyl N-(4-{2-[4-carbamoyl-5-(carbamoylamino)-2-thienyl]ethyl}benzyl)-L-leucinate]
IC50 (IKKβ; [6]): > 5000 nM
IC50 [1, 8]: > 5000 nM
IC50 [2, 9]: 500 to 5000 nM

SMILES: CC(C)C[C@H](NCc1ccc(CCc2cc(C(N)=O)c(NC(N)=O)s2)cc1)C(=O)O [Example 6, N-(4-{2-[4-Carbamoyl-5-(carbamoylamino)-2-thienyl]ethyl}benzyl)-L-leucine]
IC50 (IKKβ; [6]): 500 to 5000 nM

SMILES: NC(=O)Nc1sc(Cc2ccccc2)cc1C(N)=O [reference compound]
IC50 (IKKβ; [5]): 486 nM
IC50 [1, 7]: 2710 nM
Ratio of whole blood IC50 to enzyme IC50 [2]: >20
inhibition at 10 µM ([2]; Homo sapiens, @10 μM, read-out: Inhibition of TNF-α production in human whole blood, % at single concentration): 28%

Results, then the molecule that gave them:

IC50 (IKKβ; Acid: the acid of the drawn ester (Example 1), read-out: Inhibition of IKKβ (IC50 nM), Acid): 369 nM
IC50 (IKKβ; [5]): 10000 nM
IC50 (IKKβ; [6]): > 5000 nM
IC50 [1, 7]: 1940 nM
IC50 [1, 8]: 500 to 5000 nM
Ratio of whole blood IC50 to enzyme IC50 [2]: 0.05
IC50 ([2]; Homo sapiens, read-out: Inhibition of TNF-α production in human whole blood (IC50)): 497 nM
IC50 [2, 9]: < 500 nM
Concentration in U937 cell line ([3]; 0 hrs incubation): 420 ng/10^6 cells
Concentration in U937 cell line ([3]; 6 hrs incubation): 217 ng/10^6 cells
Concentration in HUT78 cell line ([4]; 0 hrs incubation): 466 ng/10^6 cells
Concentration in HUT78 cell line ([4]; 6 hrs incubation): 465 ng/10^6 cells
SMILES: CC(C)C[C@H](NCc1ccc(Cc2cc(C(N)=O)c(NC(N)=O)s2)cc1)C(=O)OC1CCCC1 [Example 1, Cyclopentyl N-(4-{[4-carbamoyl-5-(carbamoylamino)-2-thienyl]methyl}benzyl)-L-leucinate]

IC50 (IKKβ; [6]): > 5000 nM
IC50 [1, 8]: 500 to 5000 nM
IC50 [2, 9]: 500 to 5000 nM
SMILES: CC(C)C[C@H](NCc1ccc(C#Cc2cc(C(N)=O)c(NC(N)=O)s2)cc1)C(=O)OC1CCCC1 [Example 4, Cyclopentyl N-(4-{[4-carbamoyl-5-(carbamoylamino)-2-thienyl]ethynyl}benzyl)-L-leucinate]

IC50 (IKKβ; [6]): < 500 nM
Concentration in U937 cell line ([3]; 0 hrs incubation): 68 ng/10^6 cells
Concentration in U937 cell line ([3]; 6 hrs incubation): 286 ng/10^6 cells
Concentration in HUT78 cell line ([4]; 0 hrs incubation): 0 ng/10^6 cells
SMILES: CC(C)C[C@H](NCc1ccc(Cc2cc(C(N)=O)c(NC(N)=O)s2)cc1)C(=O)O [Example 5, N-(4-{[4-Carbamoyl-5-(carbamoylamino)-2-thienyl]methyl}benzyl)-L-leucine]
